Structures can show the parent of a compound that is named as a salt. Where two headings read alike, the source gives them in different places.
What was measured:
Tyrosinase = conditions: L-DOPA as substrate, read-out: Tyrosinase Inhibitory Activity IC50, cited from earlier work
B16 melanoma cells = test system: B16 melanoma cells; design: method as in PMID 20863702; conditions: read-out: Anti-Melanogenesis Activity IC50; cited from earlier work
[1] = DPPH radical scavenging assay; conditions: 0.1 mM DPPH, 30 min in the dark, 517 nm; mean ± SD of triplicate
Experimental: Radical scavenging activity of the thiosemicarbazone derivatives was estimated according to the previously reported method with slight modification using the stable DPPH radical. A solution of 0.1 mM DPPH radical was added to various concentrations of the compounds. The absorbance of the DPPH radical without an antioxidant, i.e., blank, was also measured. The mixture was shaken vigorously and kept at room temperature for 30 min in the dark. The absorbance of the reaction mixture was measured at 517 nm spectrophotometrically. All the determinations were performed in triplicate.

mushroom tyrosinase = assay: Mushroom tyrosinase inhibition assay (L-DOPA, dopachrome formation at 492 nm); format: biochemical; conditions: L-DOPA substrate, pH 6.8, 37 °C; mean ± SD of triplicate experiments; read-out: IC50 against mushroom tyrosinase activity
Experimental: Mushroom Tyr inhibition was assessed as described previously with minor modifications. […] L-DOPA was then added and the dopachrome formation was monitored at 492 nm. The measurements were taken using a FLUOstar OPTIMA (BMG Labtech, Offenburg, Germany). The IC50 value was determined by analysing dose–response curves.

[2] = ABTS radical scavenging assay; conditions: 734 nm after 1 min of incubation; mean ± SD of triplicate
Experimental: Samples of each compound (10 µL) were added to 990 µL of ABTS, and the reduction in the blue-green radical ABTS^+• by hydrogen-donating antioxidants was evaluated by measuring the absorbance at 734 nm after 1 min of incubation. All the measurements were carried out at least three times.

| melting point [°C] | IC50 (mushroom tyrosinase) [nM] | SMILES | DPPH (% I ± SD), percentage of inhibition of free radicals [1] [%] | ABTS (% I ± SD), percentage of inhibition of free radicals [2] [%] | further results |
| --- | --- | --- | --- | --- | --- |
| 159 to 160 | – | NC(=S)N/N=C/c1ccc(OS(=O)(=O)c2ccccc2)cc1 (as salt: benzenesulfonate) [TCBS1, (E)-4-((2-carbamothioylhydrazineylidene)methyl)phenyl benzenesulfonate] | – | – | – |
| 226 to 228 | – | NC(=S)N/N=C/c1ccc(OS(=O)(=O)c2ccc([N+](=O)[O-])cc2)cc1 (as salt: benzenesulfonate) [TCBS2, (E)-4-((2-carbamothioylhydrazineylidene)methyl)phenyl 4-nitrolbenzenesulfonate] | – | – | – |
| 194 to 196 | – | NC(=S)N/N=C/c1ccc(OS(=O)(=O)c2ccc(Cl)cc2)cc1 (as salt: benzenesulfonate) [TCBS5, (E)-4-((2-carbamothioylhydrazineylidene)methyl)phenyl 4-chlorobenzenesulfonate] | – | – | – |
| – | – | NC(=S)N/N=C/c1ccc(Cl)cc1 [Compound 1] | – | – | IC50 (Tyrosinase; ref 17): 840 nM; IC50 (Tyrosinase; ref 18): 1900 nM |
| – | – | COc1ccc(/C=N/NC(N)=S)cc1 [Compound 2] | – | – | IC50 (Tyrosinase; ref 17): 440 nM; IC50 (Tyrosinase; ref 20): 1480 nM |
| – | – | NC(=S)N/N=C/c1ccc([N+](=O)[O-])cc1 [Compound 3] | – | – | IC50 (Tyrosinase; ref 19): 1900 nM |
| – | – | NC(=S)N/N=C/c1ccccc1 [Compound 4] | – | – | IC50 (B16 melanoma cells): > 10000 nM |
| – | – | NC(=S)N/N=C/c1cccc2ccccc12 [Compound 5] | – | – | IC50 (B16 melanoma cells): 1100 nM |
| – | – | NC(=S)N/N=C/c1ccncc1 [Compound 6] | – | – | IC50 (B16 melanoma cells): > 30000 nM |
| – | 440 ± 30 | NC(=S)N/N=C/c1ccc(OS(=O)(=O)c2ccccc2)cc1 [TCBS1, (E)-4-((2-carbamothioylhydrazineylidene)methyl)phenyl benzenesulfonate] | 26 ± 2 | 39 ± 1 | – |
| – | 660 ± 50 | NC(=S)N/N=C/c1ccc(OS(=O)(=O)c2ccc([N+](=O)[O-])cc2)cc1 [TCBS2, (E)-4-((2-carbamothioylhydrazineylidene)methyl)phenyl 4-nitrolbenzenesulfonate] | 16 ± 2 | 25 ± 4 | – |
| 154 to 156 | 440 ± 10 | COc1ccc(S(=O)(=O)Oc2ccc(/C=N/NC(N)=S)cc2)cc1 [TCBS3, (E)-4-((2-carbamothioylhydrazineylidene)methyl)phenyl 4-methoxylbenzenesulfonate] | 33 ± 4 | 35 ± 1 | – |
| 195 to 197 | 440 ± 10 | Cc1ccc(S(=O)(=O)Oc2ccc(/C=N/NC(N)=S)cc2)cc1 [TCBS4, (E)-4-((2-carbamothioylhydrazineylidene)methyl)phenyl 4-methylbenzenesulfonate] | 20 ± 1 | 30 ± 2 | – |
| – | 710 ± 20 | NC(=S)N/N=C/c1ccc(OS(=O)(=O)c2ccc(Cl)cc2)cc1 [TCBS5, (E)-4-((2-carbamothioylhydrazineylidene)methyl)phenyl 4-chlorobenzenesulfonate] | 32 ± 5 | 22 ± 2 | – |
| 224 to 226 | 1600 ± 20 | CS(=O)(=O)Oc1ccc(/C=N/NC(N)=S)cc1 [TCMS1, (E)-4-((2-carbamothioylhydrazineylidene)methyl)phenyl methanesulfonate] | 20 ± 2 | 42 ± 4 | – |

Reference: PMC11643516, “Design, Synthesis, Structural Insights, Tyrosinase Inhibition, and Sun Protection Factor of New Thiosemicarbazone Derivatives” (Molecules, 2024)
